Assay results published in patent publication US10253002B2, “Compounds and methods of treating infections” (Neoculi Pty Ltd., priority 2013, dated 2019).
Converted amounts (≈) assume the structure as drawn. “And” between values parts separate entries of the source, which are not always exact repeats. Equal entries are not always repeated. Where two headings read alike, the source gives them in different places.

Tests used:
[1] = test system: vancomycin-resistant Enterococcus spp. (VRE); test: Broth microdilution MIC (CLSI), Example 1; type: cell-based
Experimental: Cation adjusted Mueller Hinton Broth (CAMHB) was prepared using 100 mL sterile Mueller Hinton broth (pH adjusted). To each 100 mL volume, 125 μL of calcium stock solution (10 mg Ca^2+ per ml) and 43 μL magnesium stock solution (10 mg Mg^2+ per mL) was aseptically added. Sufficient broth is made up for daily use, with unused portions being stored at 4° C. overnight.
Potency was described as 1000 mg/g or 100%. The powder was dissolved in 10 mL DMSO and 1 mL volumes were aliquoted into eppendorf tubes and stored at −80° C.
Serial dilutions were prepared in 96 well plates were set up in a safety cabinet according to methods standard in the art. Briefly: 90 μL of the working antibiotic solution was added to each well in Column 12 of the plate, and mixed well, before 90 μL was transferred to column 11. The solutions were mixed again, and then transferred to the next column as before, continuing the dilutions through to column 3. Mixing the well requires the pick up and expulsion of 90 μL in each well 3-4 times before picking up and transferring the 90 μL to the next well. […] The trays were set up as follows: 2 strains were tested in duplicate in one tray, such that strain 1 was located in rows A to D, strain 2 was located in rows E to H, etc.
Fresh cultures of bacteria were prepared for testing on sheep blood agar (SBA), and overnight incubation at 37° C. as follows; 2-3 colonies of each strain in 7 mL sterile saline, and the OD600 measured as an indication of the density (approx. […] or 0.5 McFarland Standard). The bacterial suspension was adjusted to a final absorbance of 0.08 to 0.100, using saline to achieve correct density, and as the blank. Within 15 minutes of preparation, the adjusted bacterial suspension with sterile saline 1:20 (1 mL into 19 mL sterile saline) to achieve a final bacterial concentration of 4 to 5×10^6 CFU/mL. The bacterial solution was placed into a sterile trough and 10 μL of bacterial solution added into wells 2 through to 12 on each required row (dilution of 1:10, with final concentration of bacteria in wells=5×10^5 CFU/mL). The tray was sealed and incubated at 37° C. for 18-24 h. The purity of bacterial suspension was confirmed by streaking out 50 μL of the 1:20 dilution onto a SBA plate, which was incubated for 37° C. for 18 h and examined. Viable counts were carried out to ensure that the correct concentration of bacteria and been added to the wells. The diluted bacterial solution (4 to 5×10^6 CFU/mL) was diluted 1:10 downwards by adding 100 μL to 900 μL of sterile saline in sterile tubes, and the serial dilutions continued 1:10 for 5 tubes. 100 μL (4-5 drops) of the 4th and 5th dilutions (tube 4=105 and tube 5=10^6 CFU/ml) was plated around in duplicate on pre-dried PCA agar plates and incubated at 37° C. overnight. The following day the number of colonies on the plates was counted and the average count in 100 μL obtained. The study was multiplied by 10 to obtain a viable bacterial count per mL.
Minimum inhibitory concentrations (μg/mL) were determined using the broth microdilution method recommended by the Clinical and Laboratory Standards Institute (CLSI) (Methods for Dilution Antimicrobial Susceptibility Tests for Bacteria That Grow Aerobically; Approved Standard—Seventh Edition. CLSI M7-A7, 2006; Performance Standards for Antimicrobial Disk and Dilution Susceptibility Tests for Bacteria Isolated from Animals; Approved Standard—Second Edition. CLSI M31-A2, 2002; Performance Standards for Antimicrobial Susceptibility Testing; CLSI M2-A9, 2006).
MIC breakpoints were determined by visual assessment and then confirmed using an ELISA plate reader, measuring absorbance levels at 450 nm. Bacterial growth (turbidity) in the wells with antimicrobial was compared with the amount of growth (turbidity) in the growth-control well (containing no antimicrobial).

[2] = test system: Staphylococcus aureus T3-129 / Staphylococcus spp. MK1; test: Synergy studies, checkerboard method (FIC index); type: cell-based; conditions: S. aureus strain T3-29

CC1(C)S[C@@H]2[C@H](NC(=O)[C@H](N)c3ccccc3)C(=O)N2[C@H]1C(=O)O [Ampicillin]
MIC90 ([1]; E. faecium, 16 isolates, read-out: MIC90): 2 mg/L (≈ 5.72 µM) | MIC ([1]; E. faecium, 16 isolates, read-out: MIC mode): 1 mg/L (≈ 2.86 µM) | MIC ([1]; Enterococcus faecalis strain ATCC 29212, read-out: MIC of control strain (internal quality control)): 1 mg/L | MIC90 ([1]; Enterococcus isolates of Table 4, Test 2): 2 mg/L (≈ 5.72 µM) | MIC ([1]; Enterococcus, ATCC 29212 / VRE, Enterococcus spp. ATCC 29212, Test 1, read-out: MIC): 1 mg/L (≈ 2.86 µM) | MIC ([1]; Enterococcus, ATCC 29212 / VRE, Enterococcus spp. ATCC 29212, Test 2, read-out: MIC): 1 mg/L (≈ 2.86 µM) | MIC ([1]; Enterococcus, VRE, 20 isolates, read-out: MIC mode): 1 mg/L (≈ 2.86 µM) | MIC ([1]; Enterococcus, VRE, B09/2021, Test 1, read-out: MIC): 1 mg/L (≈ 2.86 µM) | MIC ([1]; Enterococcus, VRE, B09/2021, Test 2, read-out: MIC): 1 mg/L (≈ 2.86 µM) | MIC ([1]; Enterococcus, VRE, B09/2032, Test 1, read-out: MIC): 2 mg/L (≈ 5.72 µM) | MIC ([1]; Enterococcus, VRE, B09/2032, Test 2, read-out: MIC): 2 mg/L (≈ 5.72 µM) | MIC ([1]; Enterococcus, VRE, B09/2087, Test 1, read-out: MIC): 2 mg/L (≈ 5.72 µM) | MIC ([1]; Enterococcus, VRE, B09/2087, Test 2, read-out: MIC): 1 mg/L (≈ 2.86 µM) | MIC ([1]; Enterococcus, VRE, B09/2088, Test 1, read-out: MIC): 1 mg/L (≈ 2.86 µM) | MIC ([1]; Enterococcus, VRE, B09/2088, Test 2, read-out: MIC): 1 mg/L (≈ 2.86 µM) | MIC ([1]; Enterococcus, VRE, B09/2121, Test 1, read-out: MIC): 1 mg/L (≈ 2.86 µM) | MIC ([1]; Enterococcus, VRE, B09/2121, Test 2, read-out: MIC): 1 mg/L (≈ 2.86 µM) | MIC ([1]; Enterococcus, VRE, B09/2192, Test 1, read-out: MIC): 1 mg/L (≈ 2.86 µM) | MIC ([1]; Enterococcus, VRE, B09/2192, Test 2, read-out: MIC): 1 mg/L (≈ 2.86 µM) | MIC ([1]; Enterococcus, VRE, Enterococcus 008, Test 1, read-out: MIC): 1 mg/L (≈ 2.86 µM) | MIC ([1]; Enterococcus, VRE, Enterococcus 008, Test 2, read-out: MIC): 1 mg/L (≈ 2.86 µM) | MIC ([1]; Enterococcus, VRE, Enterococcus 009, Test 1, read-out: MIC): 1 mg/L (≈ 2.86 µM) | MIC ([1]; Enterococcus, VRE, Enterococcus 009, Test 2, read-out: MIC): 1 mg/L (≈ 2.86 µM) | MIC ([1]; Enterococcus, VRE, Enterococcus 010, Test 1, read-out: MIC): 2 mg/L (≈ 5.72 µM) | MIC ([1]; Enterococcus, VRE, Enterococcus 010, Test 2, read-out: MIC): 2 mg/L (≈ 5.72 µM) | MIC ([1]; Enterococcus, VRE, Enterococcus 011, Test 1, read-out: MIC): 1 mg/L (≈ 2.86 µM) | MIC ([1]; Enterococcus, VRE, Enterococcus 011, Test 2, read-out: MIC): 1 mg/L (≈ 2.86 µM) | MIC ([1]; Enterococcus, VRE, Enterococcus 012, Test 1, read-out: MIC): 0.5 mg/L (≈ 1.43 µM) | MIC ([1]; Enterococcus, VRE, Enterococcus 012, Test 2, read-out: MIC): 0.5 mg/L (≈ 1.43 µM) | MIC ([1]; Enterococcus, VRE, Enterococcus 013, Test 1, read-out: MIC): 2 mg/L (≈ 5.72 µM) | MIC ([1]; Enterococcus, VRE, Enterococcus 013, Test 2, read-out: MIC): 2 mg/L (≈ 5.72 µM) | MIC ([1]; Enterococcus, VRE, Enterococcus 014, Test 1, read-out: MIC): 1 mg/L (≈ 2.86 µM) | MIC ([1]; Enterococcus, VRE, Enterococcus 014, Test 2, read-out: MIC): 1 mg/L (≈ 2.86 µM) | MIC ([1]; Enterococcus, VRE, VRE 001, Test 1, read-out: MIC): 0.5 mg/L (≈ 1.43 µM) | MIC ([1]; Enterococcus, VRE, VRE 001, Test 2, read-out: MIC): 0.5 mg/L (≈ 1.43 µM) | MIC ([1]; Enterococcus, VRE, VRE 002, Test 1, read-out: MIC): 1 mg/L (≈ 2.86 µM) | MIC ([1]; Enterococcus, VRE, VRE 002, Test 2, read-out: MIC): 1 mg/L (≈ 2.86 µM) | MIC ([1]; Enterococcus, VRE, VRE 003, Test 1, read-out: MIC): 0.5 mg/L (≈ 1.43 µM) | MIC ([1]; Enterococcus, VRE, VRE 003, Test 2, read-out: MIC): 0.5 mg/L (≈ 1.43 µM) | MIC ([1]; Enterococcus, VRE, VRE 004, Test 1, read-out: MIC): 1 mg/L (≈ 2.86 µM) | MIC ([1]; Enterococcus, VRE, VRE 004, Test 2, read-out: MIC): 1 mg/L (≈ 2.86 µM) | MIC ([1]; Enterococcus, VRE, VRE 005, Test 1, read-out: MIC): 1 mg/L (≈ 2.86 µM) | MIC ([1]; Enterococcus, VRE, VRE 005, Test 2, read-out: MIC): 1 mg/L (≈ 2.86 µM) | MIC ([1]; Enterococcus, VRE, VRE 006, Test 1, read-out: MIC): 1 mg/L (≈ 2.86 µM) | MIC ([1]; Enterococcus, VRE, VRE 006, Test 2, read-out: MIC): 1 mg/L (≈ 2.86 µM) | MIC ([1]; Enterococcus, VRE, VRE 007, Test 1, read-out: MIC): 1 mg/L (≈ 2.86 µM) | MIC ([1]; Enterococcus, VRE, VRE 007, Test 2, read-out: MIC): 1 mg/L (≈ 2.86 µM) | MIC50 ([1]; Enterococcus, VRE, 20 isolates): 1 mg/L (≈ 2.86 µM) | MIC90 ([1]; VRE, 20 isolates): 2 mg/L (≈ 5.72 µM) | MIC90 ([1]; VRE, Enterococcus isolates of Table 4, Test 1, read-out: MIC90): 2 mg/L (≈ 5.72 µM) | FICI ([2]; FIC index of antibiotic with NCL812): 0.75 and 0.53 | FIC1 ([2]; MIC of antibiotic in combination with NCL812/MIC of antibiotic alone): 0.5 | Result (interaction with NCL812) ([2]; antibiotic with NCL812): NE (No effect (NE) was defined as 0.5<FICI<4)
